From paper PMC7708037, “Targeting OGG1 arrests cancer cell proliferation by inducing replication stress” (Nucleic Acids Research, 2020)

Test system: MCM4 mRNA in A3 cells
Assay: Real time PCR of MCM4 mRNA
Format: cell-based, human
Settings: 10 μM, 72 h
Protocol: RNA was extracted from cultured cells using TRIzol® Reagent (Thermo Fisher Scientific). RNA quantity and quality were assessed by NanoDrop® (ND-1000 V3.7.1; Thermo Fisher Scientific). The High-Capacity cDNA Reverse Transcription Kit (Applied Biosystems) was utilized for cDNA synthesis following the manufacturer's instructions. Two microliters of cDNA at a final concentration of 10 ng/μl were mixed with GoTaq® qPCR MasterMix 1× (Promega) and 1 μM cDNA primers of each pair of primers (F/R) in a final volume reaction of 10 μl. Primers used are listed in Supplementary Table S2. The amplification conditions consisted of an initial step at 95°C for 10 min, followed by 40 cycles of 10 s at 95°C and 1 min at 60°C. Each qPCR was performed in duplicates or triplicates including no-template controls in an Abi QuantStudio 1 Flex Real-Time PCR System (Applied Biosystems). Relative transcript levels for each replication gene, was calculated using the 2ΔΔCt method for qPCR analysis after normalization with the housekeeping gene beta-actin (B-actin-F 5′-CCTGGCACCCAGCACAAT- 3′; B-actin-R 5′ - GGGCCGGACTCGTCATACT-3′).
Figure 6. […] Only genes with a mean normalized count >5 were analyzed. […] Statistical significance was determined using a two-sided unpaired t-test (ns, non-significant, *P < 0.05, **P < 0.01, ***P < 0.001 and ****P < 0.0001).

## O=C(Nc1ccc(I)cc1)N1CCC(n2c(=O)[nH]c3c(Br)cccc32)CC1 [TH5487]
  MCM4 mRNA levels: slight but significant downregulation
